“And” between values parts separate entries of the source, which are not always exact repeats. Identical values can stand only once.
Experiment: molar heat capacity at constant pressure
Details: 101.33 kPa, Small (less than 1 g) adiabatic calorimetry

Cl.NC12CC3CC(CC(C3)C1)C2 [1-aminoadamantane hydrochloride]
Details | molar heat capacity at constant pressure
5 K, Crystal 3 | 0.585 J/K/mol
5.01 K, Crystal 3 | 0.5801 J/K/mol
5.25 K, Crystal 3 | 0.6835 J/K/mol
5.49 K, Crystal 3 | 0.7946 J/K/mol
5.75 K, Crystal 3 | 0.916 J/K/mol
6 K, Crystal 3 | 1.051 J/K/mol
6.3 K, Crystal 3 | 1.22 J/K/mol
6.62 K, Crystal 3 | 1.42 J/K/mol
6.95 K, Crystal 3 | 1.642 J/K/mol
7.29 K, Crystal 3 | 1.891 J/K/mol
7.64 K, Crystal 3 | 2.153 J/K/mol
7.99 K, Crystal 3 | 2.437 J/K/mol
8.34 K, Crystal 3 | 2.747 J/K/mol
8.7 K, Crystal 3 | 3.078 J/K/mol
9.06 K, Crystal 3 | 3.426 J/K/mol
9.43 K, Crystal 3 | 3.794 J/K/mol
9.79 K, Crystal 3 | 4.174 J/K/mol
10 K, Crystal 3 | 4.396 J/K/mol
10.17 K, Crystal 3 | 4.569 J/K/mol
10.64 K, Crystal 3 | 5.116 J/K/mol
11.22 K, Crystal 3 | 5.781 J/K/mol
11.81 K, Crystal 3 | 6.479 J/K/mol
12.4 K, Crystal 3 | 7.208 J/K/mol
13 K, Crystal 3 | 7.971 J/K/mol
13.6 K, Crystal 3 | 8.754 J/K/mol
14.21 K, Crystal 3 | 9.533 J/K/mol
14.82 K, Crystal 3 | 10.38 J/K/mol
15 K, Crystal 3 | 10.64 J/K/mol
15.54 K, Crystal 3 | 11.36 J/K/mol
16.37 K, Crystal 3 | 12.56 J/K/mol
17.21 K, Crystal 3 | 13.72 J/K/mol
18.05 K, Crystal 3 | 14.85 J/K/mol
18.89 K, Crystal 3 | 15.98 J/K/mol
19.74 K, Crystal 3 | 17.1 J/K/mol
20 K, Crystal 3 | 17.48 J/K/mol
20.86 K, Crystal 3 | 18.62 J/K/mol
22.27 K, Crystal 3 | 20.49 J/K/mol
23.7 K, Crystal 3 | 22.36 J/K/mol
25 K, Crystal 3 | 24 J/K/mol
25.12 K, Crystal 3 | 24.15 J/K/mol
26.55 K, Crystal 3 | 25.89 J/K/mol
27.96 K, Crystal 3 | 27.53 J/K/mol
29.45 K, Crystal 3 | 29.22 J/K/mol
30 K, Crystal 3 | 29.84 J/K/mol
31.06 K, Crystal 3 | 31 J/K/mol
32.82 K, Crystal 3 | 32.84 J/K/mol
34.59 K, Crystal 3 | 34.6 J/K/mol
35 K, Crystal 3 | 34.98 J/K/mol
36.37 K, Crystal 3 | 36.26 J/K/mol
38.14 K, Crystal 3 | 37.9 J/K/mol
39.92 K, Crystal 3 | 39.49 J/K/mol
40 K, Crystal 3 | 39.56 J/K/mol
41.79 K, Crystal 3 | 41.08 J/K/mol
43.77 K, Crystal 3 | 42.73 J/K/mol
45 K, Crystal 3 | 43.74 J/K/mol
45.75 K, Crystal 3 | 44.38 J/K/mol
47.72 K, Crystal 3 | 45.9 J/K/mol
49.71 K, Crystal 3 | 47.41 J/K/mol
50 K, Crystal 3 | 47.63 J/K/mol
51.69 K, Crystal 3 | 48.89 J/K/mol
53.68 K, Crystal 3 | 50.26 J/K/mol
55.67 K, Crystal 3 | 51.64 J/K/mol
57.67 K, Crystal 3 | 52.99 J/K/mol
59.67 K, Crystal 3 | 54.32 J/K/mol
60 K, Crystal 3 | 54.53 J/K/mol
61.67 K, Crystal 3 | 55.65 J/K/mol
63.67 K, Crystal 3 | 56.94 J/K/mol
65.68 K, Crystal 3 | 58.17 J/K/mol
67.69 K, Crystal 3 | 59.45 J/K/mol
69.7 K, Crystal 3 | 60.69 J/K/mol
70 K, Crystal 3 | 60.92 J/K/mol
71.71 K, Crystal 3 | 62 J/K/mol
73.72 K, Crystal 3 | 63.24 J/K/mol
75.74 K, Crystal 3 | 64.48 J/K/mol
77.75 K, Crystal 3 | 65.74 J/K/mol
78.45 K, Crystal 3 | 66.2 J/K/mol
79.78 K, Crystal 3 | 66.97 J/K/mol
80 K, Crystal 3 | 67.11 J/K/mol
80.56 K, Crystal 3 | 67.47 J/K/mol
81.8 K, Crystal 3 | 68.23 J/K/mol
82.48 K, Crystal 3 | 68.62 J/K/mol
83.83 K, Crystal 3 | 69.44 J/K/mol
84.4 K, Crystal 3 | 69.79 J/K/mol
86.32 K, Crystal 3 | 71.01 J/K/mol
88.24 K, Crystal 3 | 72.23 J/K/mol
90 K, Crystal 3 | 73.32 J/K/mol
90.17 K, Crystal 3 | 73.44 J/K/mol
92.09 K, Crystal 3 | 74.67 J/K/mol
94.02 K, Crystal 3 | 75.9 J/K/mol
95.95 K, Crystal 3 | 77.18 J/K/mol
97.89 K, Crystal 3 | 78.44 J/K/mol
99.83 K, Crystal 3 | 79.74 J/K/mol
100 K, Crystal 3 | 79.81 J/K/mol
100.61 K, Crystal 3 | 80.3 J/K/mol
101.77 K, Crystal 3 | 81.04 J/K/mol
102.13 K, Crystal 3 | 81.29 J/K/mol
103.66 K, Crystal 3 | 82.26 J/K/mol
103.71 K, Crystal 3 | 82.35 J/K/mol
105.19 K, Crystal 3 | 83.26 J/K/mol
105.66 K, Crystal 3 | 83.7 J/K/mol
106.71 K, Crystal 3 | 84.46 J/K/mol
107.61 K, Crystal 3 | 85.07 J/K/mol
108.24 K, Crystal 3 | 85.55 J/K/mol
109.57 K, Crystal 3 | 86.53 J/K/mol
109.77 K, Crystal 3 | 86.68 J/K/mol
110 K, Crystal 3 | 86.83 J/K/mol
110.61 K, Crystal 3 | 87.3 J/K/mol
111.3 K, Crystal 3 | 87.82 J/K/mol
111.52 K, Crystal 3 | 88.04 J/K/mol
111.99 K, Crystal 3 | 88.23 J/K/mol
112.83 K, Crystal 3 | 89.22 J/K/mol
113 K, Crystal 3 | 89.28 J/K/mol
113.48 K, Crystal 3 | 89.74 J/K/mol
114.01 K, Crystal 3 | 90.15 J/K/mol
114.36 K, Crystal 3 | 90.6 J/K/mol
115.02 K, Crystal 3 | 91.42 J/K/mol
115.44 K, Crystal 3 | 92 J/K/mol
115.56 K, Crystal 3 | 91.67 J/K/mol
115.89 K, Crystal 3 | 92.64 J/K/mol
116.03 K, Crystal 3 | 92.78 J/K/mol
116.09 K, Crystal 3 | 92.4 J/K/mol
116.58 K, Crystal 3 | 93.36 J/K/mol
117.03 K, Crystal 3 | 94.87 J/K/mol
117.07 K, Crystal 3 | 94.53 J/K/mol
117.39 K, Crystal 3 | 96.19 J/K/mol
117.4 K, Crystal 3 | 96.04 J/K/mol
117.56 K, Crystal 3 | 95.93 J/K/mol
118.03 K, Crystal 3 | 98.29 J/K/mol
118.05 K, Crystal 3 | 97.56 J/K/mol
118.53 K, Crystal 3 | 100.2 J/K/mol
118.9 K, Crystal 3 | 105.3 J/K/mol
119.01 K, Crystal 3 | 104 J/K/mol
119.02 K, Crystal 3 | 105.6 J/K/mol
119.31 K, Crystal 3 | 108.3 J/K/mol
119.48 K, Crystal 3 | 110.1 J/K/mol
119.95 K, Crystal 3 | 112.9 J/K/mol
119.99 K, Crystal 3 | 111.4 J/K/mol
120 K, Crystal 2 | 94.01 J/K/mol
120 K, Crystal 3 | 94.01 J/K/mol
120.37 K, Crystal 2 | 108.5 J/K/mol
120.42 K, Crystal 2 | 108.5 J/K/mol
120.89 K, Crystal 2 | 104.8 J/K/mol
120.95 K, Crystal 2 | 106.2 J/K/mol
121.24 K, Crystal 2 | 112.4 J/K/mol
121.37 K, Crystal 2 | 108.6 J/K/mol
121.81 K, Crystal 2 | 125.5 J/K/mol
121.84 K, Crystal 2 | 120 J/K/mol
121.91 K, Crystal 2 | 126.5 J/K/mol
122.28 K, Crystal 2 | 146.1 J/K/mol
122.69 K, Crystal 2 | 168 J/K/mol
122.76 K, Crystal 2 | 187.7 J/K/mol
123.07 K, Crystal 1 | 165.2 J/K/mol and 227.7 J/K/mol
123.1 K, Crystal 1 | 96.21 J/K/mol
123.1 K, Crystal 2 | 96.21 J/K/mol
123.13 K, Crystal 1 | 176.4 J/K/mol
123.47 K, Crystal 1 | 148 J/K/mol
123.61 K, Crystal 1 | 138.3 J/K/mol
123.92 K, Crystal 1 | 106.3 J/K/mol
124.41 K, Crystal 1 | 99.7 J/K/mol
124.5 K, Crystal 1 | 100.8 J/K/mol
124.56 K, Crystal 1 | 99.57 J/K/mol
124.9 K, Crystal 1 | 99.18 J/K/mol
125.12 K, Crystal 1 | 99.65 J/K/mol
125.39 K, Crystal 1 | 98.8 J/K/mol
125.57 K, Crystal 1 | 98.89 J/K/mol
125.88 K, Crystal 1 | 98.68 J/K/mol
126.03 K, Crystal 1 | 99.11 J/K/mol
126.58 K, Crystal 1 | 99.15 J/K/mol
127.3 K, Crystal 1 | 99.61 J/K/mol
127.57 K, Crystal 1 | 99.64 J/K/mol
129.1 K, Crystal 1 | 100.5 J/K/mol
129.28 K, Crystal 1 | 100.6 J/K/mol
130 K, Crystal 1 | 101 J/K/mol
130.63 K, Crystal 1 | 101.5 J/K/mol
131.26 K, Crystal 1 | 101.8 J/K/mol
132.16 K, Crystal 1 | 102.5 J/K/mol
133.24 K, Crystal 1 | 103.2 J/K/mol
133.7 K, Crystal 1 | 103.5 J/K/mol
135.22 K, Crystal 1 | 104.5 J/K/mol
135.23 K, Crystal 1 | 104.6 J/K/mol
136.76 K, Crystal 1 | 105.6 J/K/mol
137.2 K, Crystal 1 | 105.9 J/K/mol
138.29 K, Crystal 1 | 106.7 J/K/mol
139.19 K, Crystal 1 | 107.3 J/K/mol
139.83 K, Crystal 1 | 107.7 J/K/mol
140 K, Crystal 1 | 107.9 J/K/mol
141.18 K, Crystal 1 | 108.6 J/K/mol
141.36 K, Crystal 1 | 108.7 J/K/mol
142.89 K, Crystal 1 | 109.4 J/K/mol
143.17 K, Crystal 1 | 109.5 J/K/mol
144.42 K, Crystal 1 | 109.9 J/K/mol
145.16 K, Crystal 1 | 110.1 J/K/mol
145.95 K, Crystal 1 | 110.4 J/K/mol
147.16 K, Crystal 1 | 110.9 J/K/mol
147.49 K, Crystal 1 | 111.1 J/K/mol
149.02 K, Crystal 1 | 111.7 J/K/mol
149.15 K, Crystal 1 | 111.8 J/K/mol
150 K, Crystal 1 | 112.2 J/K/mol
150.57 K, Crystal 1 | 112.4 J/K/mol
151.15 K, Crystal 1 | 112.7 J/K/mol
152.11 K, Crystal 1 | 113.3 J/K/mol
153.15 K, Crystal 1 | 113.8 J/K/mol
153.64 K, Crystal 1 | 114.2 J/K/mol
155.14 K, Crystal 1 | 114.9 J/K/mol
155.18 K, Crystal 1 | 114.9 J/K/mol
156.72 K, Crystal 1 | 115.7 J/K/mol
157.14 K, Crystal 1 | 116.1 J/K/mol
158.25 K, Crystal 1 | 116.7 J/K/mol
159.14 K, Crystal 1 | 117.2 J/K/mol
159.79 K, Crystal 1 | 117.6 J/K/mol
160 K, Crystal 1 | 117.7 J/K/mol
161.14 K, Crystal 1 | 118.4 J/K/mol
161.32 K, Crystal 1 | 118.5 J/K/mol
162.86 K, Crystal 1 | 119.5 J/K/mol
163.14 K, Crystal 1 | 119.6 J/K/mol
164.39 K, Crystal 1 | 120.4 J/K/mol
165.15 K, Crystal 1 | 120.8 J/K/mol
165.92 K, Crystal 1 | 121.2 J/K/mol
167.15 K, Crystal 1 | 122 J/K/mol
167.45 K, Crystal 1 | 122.3 J/K/mol
168.98 K, Crystal 1 | 123.2 J/K/mol
169.15 K, Crystal 1 | 123.3 J/K/mol
170 K, Crystal 1 | 123.8 J/K/mol
170.51 K, Crystal 1 | 124.1 J/K/mol
171.16 K, Crystal 1 | 124.6 J/K/mol
172.04 K, Crystal 1 | 125 J/K/mol
173.17 K, Crystal 1 | 125.8 J/K/mol
173.57 K, Crystal 1 | 126 J/K/mol
175.1 K, Crystal 1 | 127 J/K/mol
175.17 K, Crystal 1 | 127 J/K/mol
176.62 K, Crystal 1 | 127.9 J/K/mol
177.18 K, Crystal 1 | 128.3 J/K/mol
178.14 K, Crystal 1 | 128.9 J/K/mol
179.19 K, Crystal 1 | 129.6 J/K/mol
179.67 K, Crystal 1 | 130 J/K/mol
180 K, Crystal 1 | 130.1 J/K/mol
181.19 K, Crystal 1 | 130.9 J/K/mol
181.2 K, Crystal 1 | 130.9 J/K/mol
182.7 K, Crystal 1 | 131.9 J/K/mol
183.21 K, Crystal 1 | 132.2 J/K/mol
184.22 K, Crystal 1 | 132.8 J/K/mol
185.23 K, Crystal 1 | 133.5 J/K/mol
185.74 K, Crystal 1 | 133.8 J/K/mol
187.24 K, Crystal 1 | 134.8 J/K/mol
187.25 K, Crystal 1 | 134.8 J/K/mol
188.76 K, Crystal 1 | 135.8 J/K/mol
189.25 K, Crystal 1 | 136.2 J/K/mol
190 K, Crystal 1 | 136.6 J/K/mol
190.27 K, Crystal 1 | 136.9 J/K/mol
191.27 K, Crystal 1 | 137.4 J/K/mol
191.79 K, Crystal 1 | 137.9 J/K/mol
193.28 K, Crystal 1 | 138.8 J/K/mol
193.3 K, Crystal 1 | 138.9 J/K/mol
194.8 K, Crystal 1 | 139.9 J/K/mol
195.3 K, Crystal 1 | 140.1 J/K/mol
